From patent publication US7776903B2, “Pharmaceutical preparations containing substituted 2,5-diaminomethyl-1H-pyrroles” (priority 2002, dated 2010)
Read-outs that look alike come from different tables or passages of the source.

Legend:
human μ opiate receptor = human μ opiate receptor (Homo sapiens, UniProt P35372); test: Human μ opiate receptor binding assay with [3H]-naloxone, CHO-K1 membrane preparation; details: for inhibition at 1 µM: read-out: Human ORm Nal inhibition [%]
Method: b) Method for Determining Affinity for the Human μ opiate receptor
Receptor affinity for the human μ opiate receptor is determined in a homogeneous batch in microtitre plates. To this end, dilution series of the particular substituted 2,5-diaminomethyl-1H-pyrrole to be tested were incubated at room temperature for 90 minutes in a total volume of 250 μl with a receptor membrane preparation (15-40 μg of protein per 250 μl of incubation batch) of CHO-K1 cells, which express the human μ opiate receptor (RB-HOM receptor membrane preparation from NEN, Zaventem, Belgium) in the presence of 1 nmol/l of the radioactive ligand [^3H]-naloxone (NET719, from NEN, Zaventem, Belgium) and of 1 mg of WGA-SPA beads (wheat germ agglutinin SPA beads from Amersham/Pharmacia, Freiburg, Germany). The incubation buffer used is 50 mmol/l tris-HCl supplemented with 0.05 wt. % of sodium azide and with 0.06 wt. % of bovine serum albumin. 25 μmol/l of naloxone were additionally added to determine nonspecific binding. Once the ninety minute incubation time had elapsed, the microtitre plates were centrifuged off for 20 minutes at 1000 g and the radioactivity measured in a β-Counter (Microbeta-Trilux, from PerkinElmer Wallac, Freiburg, Germany. The percentage displacement of the radioactive ligand from its binding to the human μ opiate receptor was determined at a concentration of the substances to be tested of 1 μmol/l and stated as percentage inhibition of specific binding. On the basis of the percentage displacement by different concentrations of the compounds to be tested of the general formula I, IC50 inhibition concentrations which bring about 50% displacement of the radioactive ligand were calculated. Ki values for the test substances were obtained by conversion using the Cheng-Prusoff equation.

NA transporter = biological target: T1, NA transporter (Rattus norvegicus, UniProt Q63380); test: Noradrenalin uptake inhibition in rat brain synaptosomes (hypothalamus); format: biochemical; details: conc. 10 (unit not given), [3H]-NA, 7.5 minutes
T1 construct: Synaptosomes from rat brain regions were freshly isolated; from tissue; host or cells: rat brain synaptosomes (hypothalamus)
Text: (§1) c) Method for Determining Noradrenalin and the 5-HT Uptake Inhibition:
(§2) Synaptosomes from rat brain regions were freshly isolated for in vitro studies, as described in the publication “The isolation of nerve endings from brain” by E. G. Gray and V. P. Whittaker, J. Anatomy 96, pages 79-88, 1962. The corresponding literature description is hereby introduced as a reference and is deemed to be part of the disclosure.
(§3) The tissue (hypothalamus for the determination of noradrenalin uptake inhibition and medulla and pons for the determination of 5-HT uptake inhibition) was homogenised in ice-cooled 0.32 M sucrose (100 mg of tissue/1 mL) in a glass homogeniser with teflon pestle using five complete up and down strokes at 840 revolutions/minute.
(§4) The homogenate was centrifuged at 4° C. for 10 minutes at 1000 g. After subsequent centrifugation at 17000 g for 55 minutes, the synaptosomes (P2 fraction) were obtained, which were resuspended in 0.32 M glucose (0.5 mL/100 mg of original weight).
(§5) The particular uptake was measured in a 96-well microtitre plate. The volume was 250 μl and the incubation proceeded at room temperature (approx. 20-25° C.) under an O2 atmosphere.
(§6) The incubation time was 7.5 minutes for [^3H]-NA and 5 minutes for [^3H]-5-HT. The 96 samples were then filtered through a Unifilter GF/B® microtitre plate (Packard) and washed with […] of incubated buffer using a “Brabdel MPXR1-96T Cell-Harvester”. The Unifilter GF/B plate was dried for 1 hour at 55° C. The plate was then sealed with a Back seal® (Packard) and 35 μl of scintillation fluid were added per well (Ultima gold®, Packard). After sealing with a top seal® (Packard) and establishment of equilibrium (around 5 hours), radioactivity was determined in a “Trilux 1450 Microbeta” (Wallac).
The following characteristics were determined for the NA transporter: NA uptake: Km=0.32±0.11 μM
(§7) The quantity of protein used in the above determination corresponded to the values known from the literature, as for example described in “Protein measurement with the folin phenol reagent”, Lowry et al., J. Biol. Chem., 193, 265-275, 1951. A detailed description of the method may also be found in the literature, for example in M. Ch. Frink, H.-H. Hennies, W. Engelberger, M. Haurand and B. Wilffert (1996) Arzneim.-Forsch./Drug Res. 46 (III), 11, 1029-1036. The corresponding literature descriptions are hereby introduced as a reference and are deemed to be part of the disclosure.

5-HT uptake = biological target: T2, 5-HT uptake (Rattus norvegicus, UniProt P31652); test: 5-HT uptake inhibition in rat brain synaptosomes (medulla and pons); format: biochemical; details: conc. 10 (unit not given), [3H]-5-HT, 5 minutes
T2 construct: Synaptosomes from rat brain regions were freshly isolated; from tissue; host or cells: rat brain synaptosomes (medulla and pons)
Text: as §1, §2, §3, §4, §5, §6, §7

ORL-1 receptor = biological target: T3, ORL-1 receptor (Homo sapiens, UniProt P41146); test: ORL-1 receptor binding assay with 3H-nociceptin/Orphanin FQ, membranes of recombinant CHO-ORL1 cells; details: 3H-nociceptin/Orphanin FQ 0.5 nM
T3 construct: expressed in transfected cells; host or cells: CHO (CHO-ORL1)
Method: a) Method for Determining Affinity for the ORL-1 Receptor
The affinity of the particular substituted 2,5-diaminomethyl-1H-pyrrole of the general formula I for the ORL-1 receptor was determined in a receptor binding assay with ^3H-nociceptin/Orphanin FQ with membranes of recombinant CHO-ORL1 cells, as described by Ardati et al. in Mol. Pharmacol., 51, 1997, pages 816-824. The corresponding literature description is hereby introduced as a reference and is deemed to be part of the disclosure.
The concentration of ^3H-nociceptin/Orphanin FQ in these tests was 0.5 nM. The binding assays were in each case performed with 20 μg of membrane protein per 200 μl batch in 50 mM Hepes, pH 7.4, 10 mM MgCl2 and 1 mM EDTA. Binding to the ORL1 receptor was determined using 1 mg portions of WGA-SPA Beads (Amersham-Pharmacia, Freiburg, Germany), by one hour's incubation of the batch at room temperature (approx. 20-25° C.) and subsequent measurement in a Trilux scintillation counter (Wallac, Finland).

[1] = [3H]-naloxone, from IC50 by Cheng-Prusoff equation, read-out: Human ORm Nal Ki

T1 sequence (Q63380 1-617): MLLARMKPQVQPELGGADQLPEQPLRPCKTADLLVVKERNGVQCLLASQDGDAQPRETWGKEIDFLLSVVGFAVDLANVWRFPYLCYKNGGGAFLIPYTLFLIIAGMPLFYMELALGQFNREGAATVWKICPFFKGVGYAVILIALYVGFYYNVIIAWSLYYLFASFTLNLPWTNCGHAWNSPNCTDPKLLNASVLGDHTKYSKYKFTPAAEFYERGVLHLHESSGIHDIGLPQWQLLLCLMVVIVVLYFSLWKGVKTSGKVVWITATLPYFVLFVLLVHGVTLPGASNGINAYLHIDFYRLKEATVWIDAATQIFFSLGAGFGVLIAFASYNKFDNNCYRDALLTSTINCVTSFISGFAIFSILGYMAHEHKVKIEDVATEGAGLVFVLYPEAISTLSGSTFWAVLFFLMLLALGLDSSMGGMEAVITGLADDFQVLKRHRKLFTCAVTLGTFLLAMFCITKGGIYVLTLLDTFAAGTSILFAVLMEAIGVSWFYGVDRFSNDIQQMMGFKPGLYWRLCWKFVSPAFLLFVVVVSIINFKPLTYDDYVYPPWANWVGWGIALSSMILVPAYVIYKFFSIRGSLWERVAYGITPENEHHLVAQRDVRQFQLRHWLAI
T2 sequence (P31652 whole entry): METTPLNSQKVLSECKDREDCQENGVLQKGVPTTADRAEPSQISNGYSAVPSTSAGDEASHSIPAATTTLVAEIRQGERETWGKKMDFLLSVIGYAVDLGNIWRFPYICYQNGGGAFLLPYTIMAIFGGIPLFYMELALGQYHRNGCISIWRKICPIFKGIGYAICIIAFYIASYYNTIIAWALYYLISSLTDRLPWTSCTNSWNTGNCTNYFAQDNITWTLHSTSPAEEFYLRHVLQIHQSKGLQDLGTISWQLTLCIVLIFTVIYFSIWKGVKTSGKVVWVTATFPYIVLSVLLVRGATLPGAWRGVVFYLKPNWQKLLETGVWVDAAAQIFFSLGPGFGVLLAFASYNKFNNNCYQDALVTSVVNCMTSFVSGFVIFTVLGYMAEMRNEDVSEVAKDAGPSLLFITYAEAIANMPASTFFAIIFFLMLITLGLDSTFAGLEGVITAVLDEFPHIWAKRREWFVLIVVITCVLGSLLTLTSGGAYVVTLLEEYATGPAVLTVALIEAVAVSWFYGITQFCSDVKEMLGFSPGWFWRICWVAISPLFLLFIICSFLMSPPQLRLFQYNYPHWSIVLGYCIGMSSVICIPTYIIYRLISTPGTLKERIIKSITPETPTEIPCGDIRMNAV
Sequence of human μ opiate receptor (P35372 whole entry): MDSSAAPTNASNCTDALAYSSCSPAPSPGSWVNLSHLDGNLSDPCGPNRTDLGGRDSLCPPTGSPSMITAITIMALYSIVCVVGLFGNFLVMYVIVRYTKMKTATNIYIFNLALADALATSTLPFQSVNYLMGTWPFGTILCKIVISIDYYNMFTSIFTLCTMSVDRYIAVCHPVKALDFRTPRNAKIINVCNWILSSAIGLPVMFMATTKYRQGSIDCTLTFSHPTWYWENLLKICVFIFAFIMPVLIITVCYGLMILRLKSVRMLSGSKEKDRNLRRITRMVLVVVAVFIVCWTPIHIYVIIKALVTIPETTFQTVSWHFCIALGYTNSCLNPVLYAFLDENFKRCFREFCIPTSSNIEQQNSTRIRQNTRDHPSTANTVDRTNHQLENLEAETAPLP
T3 sequence (P41146 whole entry): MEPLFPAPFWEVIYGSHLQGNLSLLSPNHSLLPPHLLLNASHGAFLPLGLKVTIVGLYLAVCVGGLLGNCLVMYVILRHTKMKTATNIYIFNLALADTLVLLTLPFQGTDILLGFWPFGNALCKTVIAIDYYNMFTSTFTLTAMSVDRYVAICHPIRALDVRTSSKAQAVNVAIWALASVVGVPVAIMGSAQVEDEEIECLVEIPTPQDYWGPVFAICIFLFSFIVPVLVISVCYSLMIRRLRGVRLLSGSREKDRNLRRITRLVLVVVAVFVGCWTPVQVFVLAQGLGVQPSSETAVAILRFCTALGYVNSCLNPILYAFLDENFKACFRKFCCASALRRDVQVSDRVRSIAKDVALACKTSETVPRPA

Compound | inhibition at 1 µM (human μ opiate receptor) [%] | Rat noradrenalin uptake inhibition [%], conc. 10 (NA transporter) [%] | Rat 5-HT uptake inhibition [%] conc. 10 (5-HT uptake) [%] | Ki (human μ opiate receptor; [1]) [µM] | Ki (human μ opiate receptor) [µM] | Ki (ORL-1 receptor) [µM] | Human ORL1 inhibition [%] (ORL-1 receptor; test concentration not given)
COc1ccccc1C(c1ccc(CN2CCCC2)n1C)N(C)C.Cl.Cl (stereo not shown) [Example 2, [(2-Methoxyphenyl)-(1-methyl-5-pyrrolidin-1-ylmethyl-1H-pyrrol-2-yl)-methyl]-dimethyl-amine dihydrochloride] | 25 | 65 | 76 | – | – | – | –
CCOC(=O)C(c1ccc(CN2CCCCC2)n1C)N1CCOCC1.Cl.Cl (stereo not shown) [Example 9, (1-Methyl-5-piperidin-1-ylmethyl-1H-pyrrol-2-yl)-morpholin-4-yl-acetic acid ethyl eastr dihydrochloride] | – | – | 26 | – | – | – | –
CN(C)C(c1ccccc1Br)c1ccc(CN2CCCCC2)n1C.Cl.Cl (stereo not shown) [Example 4, [(2-Bromo-phenyl)-(1-methyl-5-piperidin-1-ylmethyl-1H-pyrrol-2-yl)-methyl]-dimethyl-amine dihydrochloride] | – | – | 57 | – | – | – | –
CCOC(=O)C(c1ccc(CN2CCCCC2)n1C)N1CCCCC1 (stereo not shown) [Example 8, (1-Methyl-5-piperidin-1-ylmethyl-1H-pyrrol-2-yl)-piperidin-1-yl-acetic acid ethyl ester drochloride] | 69 | 33 | – | 0.22 | – | – | –
COc1ccccc1C(c1ccc(CN2CCCCC2)n1C)N(C)C.Cl.Cl (stereo not shown) [Example 1, [(2-Methoxyphenyl)-(1-methyl-5-piperidin-1-ylmethyl-1H-pyrrol-2-yl)-methyl]-dimethyl-amine dihydrochloride] | – | 63 | 77 | – | – | – | –
CCOC(=O)C(c1ccc(CN2CCOCC2)n1C)N1CCCC1.Cl.Cl (stereo not shown) [Example 13, (1-Methyl-5-morpholin-4-ylmethyl-1H-pyrrol-2-yl)-pyrrolidin-1-yl-acetic acid ethyl ester dihydrochloride] | – | – | 28 | – | – | – | –
CCOC(=O)C(c1ccc(CN(CC)CC)n1C)N1CCOCC1.Cl.Cl (stereo not shown) [Example 10, (5-Diethylaminomethyl-1-methyl-1H-pyrrol-2-yl)-morpholin-4-yl-acetic acid ethyl ester dihydrochloride] | 84 | – | 28 | – | 0.07 | – | –
Cc1ccccc1C(c1ccc(CN2CCCCC2)n1C)N(C)C.Cl.Cl (stereo not shown) [Example 3, Dimethyl-[(1-methyl-5-piperidin-1-ylmethyl-1H-pyrrol-2-yl)-o-tolyl-methyl]-amine dihydrochloride] | – | – | 30 | – | – | – | –
CN(C)C(c1ccc(Br)cc1)c1ccc(CN2CCCCC2)n1C.Cl.Cl (stereo not shown) [Example 5, [(4-Bromo-phenyl)-(1-methyl-5-piperidin-1-ylmethyl-1H-pyrrol-2-yl)-methyl]-dimethyl-amine dihydrochloride] | 52 | 91 | 39 | 0.86 | – | – | –
CN(C)C(c1ccc(F)cc1)c1ccc(CN2CCOCC2)n1C.Cl.Cl (stereo not shown) [Example 6, [(4-Fluoro-phenyl)-(1-methyl-5-morpholin-4-ylmethyl-1H-pyrrol-2-yl)-methyl]-dimethyl-amine dihydrochloride] | 21 | 42 | 53 | 0.5 | – | – | –
CCN(CC)Cc1ccc(C(c2ccccc2)N(C)C)n1C.Cl.Cl (stereo not shown) [Example 7, [5-(Dimethylamino-phenyl-methyl)-1-methyl-1H-pyrrol-2-ylmethyl]-diethyl-amine dihydrochloride] | 50 | 52 | 44 | – | – | 0.42 | 42
